Measurements from US20250171448A1, “SOLID STATE FORMS OF GUSACITINIB” (TEVA PHARMACEUTICALS INTERNATIONAL GMBH, priority 2022, published 2025).

How the values were obtained:
Format in all cases: physicochemical
[1] = Stability under tested stress conditions (grinding, pressure of 2 tons, humidity, temperature), summary statements; settings: strong grinding; for stability under all tested stress conditions: high temperature up to 100° C.
[2] = Storage stability at different relative humidity (XRPD after 7 days); settings: ambient temperature; for XRPD analysis results 60% (7 days): polymorphic conversion: 60% relative humidity
Description: Samples of Gusacitinib Forms: GS2, GS3, GS4 and Gusacitinib HCl salt Forms GHC11, GHC12, GHC18 were subjected to conditions of different relative humidity at ambient temperature. XRPD analysis was performed on the samples after 7 days.
A sample of Form GHC13 of Gusacitinib HCl salt was subjected to 60% relative humidity for 7 days.

[3] = Thermal stability (heating up to 100° C. for 30 minutes, XRPD)
Description: Samples of Gusacitinib Forms: GS2, GS3, GS4 and Gusacitinib HCl salt Forms GHC11, GHC12 and GHC18 were subjected to heating up to 100° C. for 30 minutes. XRPD analysis of the samples confirmed there to be no change in the starting material (Table 3): […]

[4] = Grinding experiments (strong grinding and solvent drop grinding, XRPD)
Description: Samples of Gusacitinib Forms: GS2, GS3, GS4 and Gusacitinib HCl salt Forms: GHC11, GHC12, GHC13, GHC18 were subjected to strong grinding, and to solvent drop grinding in isopropanol, ethanol and water. Grinding was carried out on the sample alone, or in the presence of the solvent. In these experiments, about 20 mg of the sample is placed in a mortar and ground with a pestle for 2 minutes. The solvent, when used, was added to the crystalline material before grinding, in a volume of 10 microlitres. XRPD analysis performed on the sample after the grinding experiment, confirmed no conversion of the starting material (Table 2): […]

## N#CCC1CCN(c2nc(Nc3ccc(N4CCC(O)CC4)cc3)c3c(=O)[nH]ncc3n2)CC1 [Form GHC11]
[1]; high humidity up to 100% RH for 7 days
  stability under all tested stress conditions: stable
[2]; listed as GHCl1
  XRPD analysis results 60% (7 days): polymorphic conversion: No

## N#CCC1CCN(c2nc(Nc3ccc(N4CCC(O)CC4)cc3)c3c(=O)[nH]ncc3n2)CC1 [Form GHC12]
[2]; listed as GHCl2
  XRPD analysis results 60% (7 days): polymorphic conversion: No

## N#CCC1CCN(c2nc(Nc3ccc(N4CCC(O)CC4)cc3)c3c(=O)[nH]ncc3n2)CC1 [Form GHC13]
[1]; high humidity up to 60% RH for 7 days
  stability under tested stress conditions: stable
[2]
  XRPD analysis results 60% (7 days): polymorphic conversion: no polymorphic conversion

## N#CCC1CCN(c2nc(Nc3ccc(N4CCC(O)CC4)cc3)c3c(=O)[nH]ncc3n2)CC1 [Form GHC18]
[2]; listed as GHCl8
  XRPD analysis results 60% (7 days): polymorphic conversion: No

## N#CCC1CCN(c2nc(Nc3ccc(N4CCC(O)CC4)cc3)c3c(=O)[nH]ncc3n2)CC1 [Form GS2, 2-[1-[4-[4-(4-hydroxypiperidin-1-yl)anilino]-5-oxo-6H-pyrimido[4,5-d]pyridazin-2-yl]piperidin-4-yl]acetonitrile]
[3]
  Result, Heating 100° C., 30 minutes: Stable
[4]; about 20 mg ground 2 minutes, 10 microlitres ethanol
  XRPD analysis results, Solvent-drop grinding (ethanol): No polymorphic
[4]; about 20 mg ground 2 minutes, 10 microlitres isopropyl alcohol
  XRPD analysis results, Solvent-drop grinding (isopropyl alcohol): No polymorphic
[4]; about 20 mg ground 2 minutes, 10 microlitres water
  XRPD analysis results, Solvent-drop grinding (water): No polymorphic
[4]; about 20 mg ground with mortar and pestle for 2 minutes, no solvent
  XRPD analysis results, Strong grinding: No polymorphic
[2]; listed as GS2
  XRPD analysis results 60% (7 days): polymorphic conversion: No

## N#CCC1CCN(c2nc(Nc3ccc(N4CCC(O)CC4)cc3)c3c(=O)[nH]ncc3n2)CC1 [Form GS3, 2-[1-[4-[4-(4-hydroxypiperidin-1-yl)anilino]-5-oxo-6H-pyrimido[4,5-d]pyridazin-2-yl]piperidin-4-yl]acetonitrile]
[2]; listed as GS3
  XRPD analysis results 60% (7 days): polymorphic conversion: No

## N#CCC1CCN(c2nc(Nc3ccc(N4CCC(O)CC4)cc3)c3c(=O)[nH]ncc3n2)CC1 [Form GS4, 2-[1-[4-[4-(4-hydroxypiperidin-1-yl)anilino]-5-oxo-6H-pyrimido[4,5-d]pyridazin-2-yl]piperidin-4-yl]acetonitrile]
[1]; high humidity up to 80% RH for 7 days
  stability under all tested stress conditions: stable
[2]; listed as GS4
  XRPD analysis results 60% (7 days): polymorphic conversion: No
[2]; 80% relative humidity
  XRPD analysis results 80% (7 days): polymorphic conversion: No
[2]; 100% relative humidity
  XRPD analysis results 100% (7 days): polymorphic conversion: No
